Where “and” joins values, the source holds several entries; their conditions need not be identical. Equal values may be shown once.
Test system: 192522-019-R-J2-PDC complex tumor spheroid viability
Assay: Anticancer human tumor 192522-019-R-J2-PDC patient-derived colon adenocarcinoma cell line growth inhibition [POLQ]
Conditions: for viability, T/C: stronger effect = lower value
Description: Multicellular complex tumor spheroid response to Polymerase (POL) inhibitors (novobiocin, ART-558, RP6685) in combination with a variety of drugs and investigational agents in selected tumor cell lines
The POL inhibitors (novobiocin, ART-558, and RP6685) were evaluated both individually and in combination with standard of care and investigational anticancer small molecules within a complex spheroid model of solid tumors. . Complex spheroids include a stromal component modeled by human endothelial cells (HUVEC) and fibroblasts modeled by human mesenchymal stem cells (MSCs). The concentration ranges selected for each drug and investigational agent were based upon clinically achievable concentrations if the clinical Cmax of the agent was known.
Compounds. The drugs and investigational agents: novobiocin (NSC847541), ART-558 (NSC835418), RP-6685 (NSC848927), peposertib (NSC802822), ceralasertib (NSC780249), elimusertib (NSC800525), camonsertib (NSC841442), AZD-1390 (NSC803789), olaparib (NSC753686), talazoparib (NSC767125), rucaparib (NSC756644), sotorasib (NSC818433), MRTX-1133 (NSC836407), SN-38 (NSC673596), topotecan (NSC609699), epotoside (NSC141540), doxorubicin (NSC123127), gemcitabine (NSC613327), 5-fluorouracil (NSC19893), paclitaxel (NSC125973), vemurafenib (NSC761431), MSA-2 (NSC828583), SN-011 (NSC837082), adavosertib (NSC754352), prexasertib (NSC758257), carboplatin (NSC241240) and oxaliplatin (NSC266046), were obtained from the National Cancer Institute (NCI) Developmental Therapeutics Program Chemical Repository (21). The FDA-approved anticancer drug set is available from the Developmental Therapeutics Program at https://dtp.cancer.gov/organization/dscb/obtaining/. […] The stock solutions were prepared in dimethyl sulfoxide (DMSO, Sigma-Aldrich, St. Louis, MO, cat. D2650), except for the platinum compounds which were prepared in saline (Quality Biological, Gaithersburg, MD, cat. 114-055-101), at 800-fold the tested concentration and stored at -70 degrees C prior to their use. All drugs and investigational agents were tested over a range starting from a high concentration at or near the clinical Cmax and decreasing in half-log increments. If the clinical Cmax for an agent had not been determined, the highest concentration tested was 10 microM, except for SN-38, which was tested at a high concentration of 1 microM.
Cell Culture. All cells were maintained in an incubator at 37 degrees C and 5% CO2 with 95% humidity. The PDC lines were cultured according to standard operating procedures established by the NCI PDMR (https://pdmr.cancer.gov). Table 3 of the manuscript, lists the cell lines along with the number of the three cell types plated to form the mct-spheroids and media for tumor cell growth. After thawing, all PDC lines, except 997537-175-T-J1-PDC and 415267-285-R-J2-PDC, were cultured in Matrigel-coated flasks prepared with a working solution of 1X Ham's F-12 nutrient mix, without supplementation (Thermo Fisher Scientific, cat. 11765054), 100 U/mL penicillin-streptomycin (Thermo Fisher Scientific, cat. 15140122), and 2.5% Matrigel (Corning Inc., Corning, NY, cat. 354248) for the first three passages. The two PDC lines 997537-175-T-J1-PDC and 415267-285-R-J2-PDC were cultured on uncoated flasks. The 857933-349-R-J2-PDC line was cultured in 6C/Colon 1B media containing advanced DMEM/F-12 (Thermo Fisher Scientific, cat. 12634028), 10 mM HEPES (Thermo Fisher Scientific, cat. 15630080), 1X GlutaMAX supplement (Thermo Fisher Scientific, cat. 35050061), 0.1 mg/mL primocin (InvivoGen, San Diego, CA, cat. ant-pm-2), 10% defined fetal bovine serum, heat inactivated (HyClone Laboratories Inc., Logan, UT, cat. SH30070.03HI), 50% L-WRN conditioned media (ATCC, cat. CRL-3276), 1.25 mM N-Acetyl-L-cysteine (Sigma-Aldrich, cat. A9165), 10 mM nicotinamide (Sigma-Aldrich, cat. N0636), 1X B-27 supplement (Thermo Fisher Scientific, cat. 17504044), 1X N-2 supplement (Thermo Fisher Scientific, cat. […]

[1] = curve of first compound, second compound 0.0316 µM
[2] = curve of first compound, second compound 0.1 µM
[3] = curve of first compound, second compound 0.316 µM
[4] = curve of first compound, second compound 1 µM
[5] = curve of first compound, second compound 3.16 µM
[6] = curve of first compound, second compound 10 µM
[7] = second compound 0.0316 µM, first compound 0.0316 µM
[8] = second compound 0.0316 µM, first compound 0.1 µM
[9] = second compound 0.0316 µM, first compound 0.316 µM
[10] = second compound 0.0316 µM, first compound 1 µM
[11] = second compound 0.0316 µM, first compound 3.16 µM
[12] = second compound 0.0316 µM, first compound 10 µM
[13] = second compound 0.1 µM, first compound 0.0316 µM
[14] = second compound 0.1 µM, first compound 0.1 µM
[15] = second compound 0.1 µM, first compound 0.316 µM
[16] = second compound 0.1 µM, first compound 1 µM
[17] = second compound 0.1 µM, first compound 3.16 µM
[18] = second compound 0.1 µM, first compound 10 µM
[19] = second compound 0.316 µM, first compound 0.0316 µM
[20] = second compound 0.316 µM, first compound 0.1 µM
[21] = second compound 0.316 µM, first compound 0.316 µM
[22] = second compound 0.316 µM, first compound 1 µM
[23] = second compound 0.316 µM, first compound 3.16 µM
[24] = second compound 0.316 µM, first compound 10 µM
[25] = second compound 1 µM, first compound 0.0316 µM
[26] = second compound 1 µM, first compound 0.1 µM
[27] = second compound 1 µM, first compound 0.316 µM
[28] = second compound 1 µM, first compound 1 µM
[29] = second compound 1 µM, first compound 3.16 µM
[30] = second compound 1 µM, first compound 10 µM
[31] = second compound 3.16 µM, first compound 0.0316 µM
[32] = second compound 3.16 µM, first compound 0.1 µM
[33] = second compound 3.16 µM, first compound 0.316 µM
[34] = second compound 3.16 µM, first compound 1 µM
[35] = second compound 3.16 µM, first compound 3.16 µM
[36] = second compound 3.16 µM, first compound 10 µM
[37] = second compound 10 µM, first compound 0.0316 µM
[38] = second compound 10 µM, first compound 0.1 µM
[39] = second compound 10 µM, first compound 0.316 µM
[40] = second compound 10 µM, first compound 1 µM
[41] = second compound 10 µM, first compound 3.16 µM
[42] = second compound 10 µM, first compound 10 µM
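Also: spheroids exposed to drugs for seven days before reading.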
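For viability, T/C in this document: 100% = DMSO vehicle control viability in luminescence.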

Work on `C#Cc1c(F)ccc2cc(O)cc(-c3ncc4c(N5CC6CCC(C5)N6)nc(OCC56CCCN5CC(F)C6)nc4c3F)c12` (stereo not given) + Nc1ccc(C#CCN(C(=O)Cc2ncc(C(F)(F)F)cc2C(F)(F)F)c2ccc(F)cc2)nn1 yielded an IC50 [1] of over 10 µM, an IC50 [2] of over 10 µM and an IC50 [3] of over 10 µM. The IC50 [4] was over 10 µM, the IC50 [5] was over 10 µM and the IC50 [6] was over 10 µM. For the same compound, the viability, T/C [7] was 93.8%, the viability, T/C [8] was 88.8% and the viability, T/C [9] was 78.2%. It also gave a viability, T/C [10] of 80.9%, a viability, T/C [11] of 67.9% and a viability, T/C [12] of 68.5%. The viability, T/C [13] was 92.8%, the viability, T/C [14] was 89.3% and the viability, T/C [15] was 72.7%. It also gave a viability, T/C [16] of 80.8%, a viability, T/C [17] of 74.5% and a viability, T/C [18] of 73.3%. The viability, T/C [19] was 88.8%, the viability, T/C [20] was 82.3% and the viability, T/C [21] was 75.3%. For the same compound, the viability, T/C [22] was 69.7%, the viability, T/C [23] was 68.2% and the viability, T/C [24] was 76.2%. It also gave a viability, T/C [25] of 89.5%, a viability, T/C [26] of 76.2% and a viability, T/C [27] of 78.7%. The viability, T/C [28] was 77.8%, the viability, T/C [29] was 78% and the viability, T/C [30] was 70.7%. For the same compound, the viability, T/C [31] was 97.9%, the viability, T/C [32] was 81.7% and the viability, T/C [33] was 71.7%. The viability, T/C [34] was 73.2%, the viability, T/C [35] was 78.4% and the viability, T/C [36] was 70.4%. For the same compound, the viability, T/C [37] was 91.9%, the viability, T/C [38] was 79.5% and the viability, T/C [39] was 80.2%. It also gave a viability, T/C [40] of 77.2%, a viability, T/C [41] of 73.7% and a viability, T/C [42] of 79.8%.
For `CC1COCCN1c1cc(C2(O)CC3CCC(C2)O3)c2cnn(-c3ccn[nH]3)c2n1` (stereo not given), the viability, T/C (compound 0.0316 µM) was 108% and 105% and 100%, the viability, T/C (compound 0.1 µM) was 70.7% and 76.9% and 78.7% and the viability, T/C (compound 0.316 µM) was 42% and 35.6% and 46%. The viability, T/C (compound 1 µM) was 33.8% and 33.4% and 34.9%, the viability, T/C (compound 3.16 µM) was 45.5% and 42.6% and 44.3% and the viability, T/C (compound 10 µM) was 49.2% and 50.7% and 51.2%. The IC50 (curve of compound) was 0.234 µM and 0.235 µM and 0.272 µM.
In the case of `CC[C@@]1(O)C(=O)OCc2c1cc1n(c2=O)Cc2cc3c(CN(C)C)c(O)ccc3nc2-1`, the viability, T/C (compound 0.000316 µM) is reported as 113% and 103% and 94.6%, the viability, T/C (compound 0.001 µM) is reported as 94.3% and 94.9% and 92.1% and the viability, T/C (compound 0.00316 µM) is reported as 106% and 97.8% and 101%. For the same compound, the viability, T/C (compound 0.01 µM) was 100% and 106% and 103%, the viability, T/C (compound 0.0316 µM) was 91.9% and 95.4% and 91.8% and the viability, T/C (compound 0.1 µM) was 70.9% and 76% and 51.1%. It also gave an IC50 (curve of compound) of over 0.1 µM.
`COc1ccc([C@@H](O)c2cc(-c3ncnc4cc(N5CCOCC5)ccc34)c(F)cc2Cl)nn1` + Nc1ccc(C#CCN(C(=O)Cc2ncc(C(F)(F)F)cc2C(F)(F)F)c2ccc(F)cc2)nn1 was tested, and the IC50 [1] was over 10 µM, the IC50 [2] was over 10 µM and the IC50 [3] was over 10 µM. The IC50 [4] was over 10 µM, the IC50 [5] was over 10 µM and the IC50 [6] was over 10 µM. For the same compound, the viability, T/C [7] was 116%, the viability, T/C [8] was 97.3% and the viability, T/C [9] was 93.7%. The viability, T/C [10] was 85.8%, the viability, T/C [11] was 75.8% and the viability, T/C [12] was 55.4%. For the same compound, the viability, T/C [13] was 106%, the viability, T/C [14] was 97.4% and the viability, T/C [15] was 98.7%. For the same compound, the viability, T/C [16] was 90.1%, the viability, T/C [17] was 86.2% and the viability, T/C [18] was 65.5%. The viability, T/C [19] was 100%, the viability, T/C [20] was 101% and the viability, T/C [21] was 102%. The viability, T/C [22] was 102%, the viability, T/C [23] was 75.3% and the viability, T/C [24] was 59.9%. It also gave a viability, T/C [25] of 102%, a viability, T/C [26] of 104% and a viability, T/C [27] of 98.1%. It also gave a viability, T/C [28] of 90.8%, a viability, T/C [29] of 93.2% and a viability, T/C [30] of 75%. The viability, T/C [31] was 107%, the viability, T/C [32] was 101% and the viability, T/C [33] was 99%. The viability, T/C [34] was 93.6%, the viability, T/C [35] was 84.1% and the viability, T/C [36] was 65.9%. It also gave a viability, T/C [37] of 104%, a viability, T/C [38] of 111% and a viability, T/C [39] of 102%. It also gave a viability, T/C [40] of 102%, a viability, T/C [41] of 82% and a viability, T/C [42] of 73.2%.
`COc1cccc2c1C(=O)c1c(O)c3c(c(O)c1C2=O)CC(O)(C(=O)CO)CC3OC1CC(N)C(O)C(C)O1` (stereo not given) was tested, and the viability, T/C (compound 0.0316 µM) was 103% and 101% and 100%, the viability, T/C (compound 0.1 µM) was 82.1% and 80.8% and 80.6% and the viability, T/C (compound 0.316 µM) was 72% and 89.1% and 66.9%. For the same compound, the viability, T/C (compound 1 µM) was 89.1% and 74.3% and 83.1%, the viability, T/C (compound 3.16 µM) was 69.1% and 72.3% and 65.9% and the viability, T/C (compound 10 µM) was 59.9% and 62.4% and 48.1%. It also gave an IC50 (curve of compound) of over 10 µM.

Source: PubChem BioAssay AID1963850 (Molecular Pharmacology Branch, DTP, NCI, 2024)
